According to article PMC5761471 (Journal of Pharmaceutical Analysis, 2014):
Values belong to the compound of their own block, whether it stands above or below them.

Legend:
[1] = Bioequivalence study, oral 400 mg raltegravir tablets; type: in vivo, human; conditions: healthy Indian subjects
[2] = stated, not tested in this paper; cited from earlier work
[3] = Stability of raltegravir in spiked human plasma and processed extracts; type: in vitro ADME; conditions: n=6
[4] = Stability of standard stock solutions; type: physicochemical; conditions: stock solution in methanol, 25 °C
[5] = cited from earlier work
[6] = Bench-top, room temperature (25 °C), 8 h, nominal 6.0 ng/mL
[7] = Bench-top, room temperature (25 °C), 8 h, nominal 5000 ng/mL
[8] = Dry extract in deep freezer at −20 °C for 65 h, nominal 6.0 ng/mL
[9] = Dry extract in deep freezer at −20 °C for 65 h, nominal 5000 ng/mL
[10] = Freeze-thaw after 5th cycle at −20 °C, nominal 6.0 ng/mL
[11] = Freeze-thaw after 5th cycle at −20 °C, nominal 5000 ng/mL
[12] = Freeze-thaw after 5th cycle at −70 °C, nominal 6.0 ng/mL
[13] = Freeze-thaw after 5th cycle at −70 °C, nominal 5000 ng/mL
[14] = Long-term at −20 °C for 42 days, nominal 6.0 ng/mL
[15] = Long-term at −20 °C for 42 days, nominal 5000 ng/mL
[16] = Long-term at −70 °C for 42 days, nominal 6.0 ng/mL
[17] = Long-term at −70 °C for 42 days, nominal 5000 ng/mL
[18] = Wet extract (autosampler) at 4 °C for 65 h, nominal 6.0 ng/mL
[19] = Wet extract (autosampler) at 4 °C for 65 h, nominal 5000 ng/mL
[20] = Wet extract at 25 °C for 4 h, nominal 6.0 ng/mL
[21] = Wet extract at 25 °C for 4 h, nominal 5000 ng/mL

presence of circulating metabolite in plasma of subject samples ([1]; up to 4 h after oral administration of the drug): complete absence
SMILES: Cc1nnc(C(=O)NC(C)(C)c2nc(C(=O)NCc3ccc(F)cc3)c(O[C@@H]3O[C@H](C(=O)O)[C@@H](O)[C@H](O)[C@H]3O)c(=O)n2C)o1 [RAL-Glu, raltegravir glucuronide]
pharmacological activity [2]: pharmacologically inactive

time required to reach peak plasma concentration ([1]; single 400 mg oral dose, fasting): ~ 2 h | Change [3, 6]: 7.17% | Mean stability sample ±SD [3, 6]: 6.43 ± 0.15 ng/mL | Change [3, 7]: −5.81% | Mean stability sample ±SD [3, 7]: 4709.67 ± 72.69 ng/mL | Change [3, 8]: 3.83% | Mean stability sample ±SD [3, 8]: 6.23 ± 0.25 ng/mL | Change [3, 9]: −2.52% | Mean stability sample ±SD [3, 9]: 4874.00 ± 183.04 ng/mL | Change [3, 10]: 2.83% | Mean stability sample ±SD [3, 10]: 6.17 ± 0.22 ng/mL | Change [3, 11]: −4.54% | Mean stability sample ±SD [3, 11]: 4773.50 ± 106.40 ng/mL | Change [3, 12]: 2.83% | Mean stability sample ±SD [3, 12]: 6.17 ± 0.24 ng/mL | Change [3, 13]: −3.90% | Mean stability sample ±SD [3, 13]: 4804.83 ± 218.23 ng/mL | Change [3, 14]: −1.00% | Mean stability sample ±SD [3, 14]: 5.94 ± 0.26 ng/mL | Change [3, 15]: −3.12% | Mean stability sample ±SD [3, 15]: 4844.00 ± 247.40 ng/mL | Change [3, 16]: 3.33% | Mean stability sample ±SD [3, 16]: 6.20 ± 0.23 ng/mL | Change [3, 17]: −2.77% | Mean stability sample ±SD [3, 17]: 4861.50 ± 315.59 ng/mL | Change [3, 18]: 4.00% | Mean stability sample ±SD [3, 18]: 6.24 ± 0.28 ng/mL | Change [3, 19]: −3.24% | Mean stability sample ±SD [3, 19]: 4838.17 ± 209.68 ng/mL | Change [3, 20]: 3.83% | Mean stability sample ±SD [3, 20]: 6.23 ± 0.25 ng/mL | Change [3, 21]: −0.81% | Mean stability sample ±SD [3, 21]: 4959.33 ± 287.84 ng/mL | short-term stability of stock solution (stable up to) [4]: up to 8 h
SMILES: Cc1nnc(C(=O)NC(C)(C)c2nc(C(=O)NCc3ccc(F)cc3)c(O)c(=O)n2C)o1 [raltegravir]
increase of area under the plasma-time curve (AUC) with a high fat meal [5]: about 19%
